A short description of the data set: gradient 5% acetonitrile 3 min, to 50% in 2 min, to 85% in 15 min, held 3 min, 100 µL/min. As to conditions: column: Zorbax Extend-C18 2.1 x 50 mm; eluents: water / acetonitrile, 0.1% formic acid. In outline: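 A Zorbax Extend-C18 column (2.1 × 50 mm, 1.8 μm) run at 100 μL/min with water and acetonitrile, both containing 0.1% formic acid, separated mixtures of ~100 pure standards. The HPLC was coupled to a quadrupole time-of-flight mass spectrometer operated in positive and negative ionization mode, with dead and dwell volumes of 40 μL and 900 μL. Each retention time was taken from a computationally picked adduct peak that was then manually inspected.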
In the case of `CCCCCn1c(=O)c2c(nc3n2CCCCN3c2ccc(OCC)cc2)n(C)c1=O`, the RP-LC retention time turned out to be 1190 s.
For `CC(=O)[C@@]1(O)CC[C@H]2[C@@H]3C[C@H](C)C4=CC(=O)C=C[C@]4(C)[C@@]3(F)[C@@H](O)C[C@@]21C`, the RP-LC retention time turned out to be 844 s.
`O=C1NC2(CCN(C(=O)Nc3ccc(Br)cc3)CC2)N=C1c1cccc(F)c1`: the RP-LC retention time is 893 s.
`CCc1nc2cc(N3CCC(C(=O)NC(C)C)CC3)cnc2nc1CC` had an RP-LC retention time of 704 s.
As for `CCCN1N=C(C(=O)N2CCOCC2)S(=O)(=O)c2cc(Cl)ccc21`, the RP-LC retention time came out at 813 s.
On to `O=C(c1ccncc1)N1CCC(n2nc(-c3ccsc3)ccc2=O)CC1`, for which the RP-LC retention time came out at 624 s.
As to `Cn1ncc2c(N3CCSCC3)nc(C(=O)NCCc3cccs3)nc21`, the RP-LC retention time came to 833 s.
In turn, `Cc1cc(C2CCCN2C(=O)c2cc(-c3ccccc3F)no2)no1` (stereo not drawn) had an RP-LC retention time of 885 s.
With `C[C@@H]1CCC2(NC1)O[C@H]1C[C@H]3[C@@H]4CC=C5C[C@@H](O)CC[C@]5(C)[C@H]4CC[C@]3(C)[C@H]1[C@H]2C` (stereo partly drawn), the RP-LC retention time stood at 757 s.
The same measure for `COc1cccc(-c2c(C(=O)O)nnn2-c2ccc3c(c2)OCO3)c1`: 743 s; for `O=C(c1ccsc1)N1CCCC1c1nc(-c2ccc(F)cc2F)no1` (stereo not drawn): 907 s; for `Nc1ccc(SCC(=O)Nc2nc(-c3ccccc3)cs2)cc1`: 817 s.
In turn, `COc1ccc(NC(=O)CSc2nnc3c4cc(-c5ccc(F)cc5)nn4ccn23)c(OC)c1` came in with an RP-LC retention time of 648 s.
`CC1CCc2nn(CC(=O)NCCCN(Cc3ccccc3)C(C)C)cc2C1` (stereo not drawn) registered an RP-LC retention time of 592 s.
The same measure for `CC(=O)NCC(=O)N1CCCn2cc(-c3ccccc3F)nc21`: 580 s; for `O=C(Cc1nnc2cc(-c3nc(C4CC4)no3)ccn12)N1CCCCCC1`: 685 s; for `Cc1ccc(Cn2c(=O)n(CCNC(=O)C3CCC3)c3ncccc32)cc1`: 779 s.
As to `CCn1cc(CCNC(=O)Nc2cccc(C)c2C)c2cccnc21`, the RP-LC retention time was determined as 720 s.
The same measure for `O=C(NCCn1nnc2cc(C(=O)N3CCCC3)ccc21)Nc1ccc(F)c(Cl)c1`: 704 s; for `CCCc1nc(-c2ccccc2)oc1CC(=O)Nc1ccc(Br)cc1F`: 1150 s.
The molecule `O=C(O)c1ccc(-c2c[nH]c3ncc(-c4ccccc4)cc23)cc1C1CCCC1` had an RP-LC retention time of 700 s.
Molecule `CN(CCCC(=O)O)S(=O)(=O)c1ccc(N)cc1` gave an RP-LC retention time of 598 s.
Regarding `Cc1ccc(-c2noc(C3CCCN3C(=O)C3CC(=O)N(c4ccc(C)c(C)c4)C3)n2)cc1` (stereo not drawn), the RP-LC retention time came to 1050 s.
The same measure for `CN(C)c1ccc(C(=O)NC2CCN(c3cc(-c4ccc(F)cc4)[nH]n3)C2)cc1` (stereo not drawn): 733 s; for `CCCN(c1ccccc1F)S(=O)(=O)c1ccc2c(c1)N(C(C)=O)CCCS2`: 993 s.
In the case of `O=C(Cn1ccc2ccc(N3CCOCC3)nc21)NCc1cccc(Cl)c1`, the RP-LC retention time amounted to 909 s.
On to `Cc1cc(C(=O)NCC23CCCC=C2NC(=O)CC3)n(C)n1` (stereo not drawn), for which the RP-LC retention time stood at 636 s.
The molecule `CCOc1nc2ccccc2nc1N1CCCC(C(=O)NC2CCCCCC2)C1` (stereo not drawn) showed an RP-LC retention time of 1250 s.
Molecule `CCOc1ccccc1NC(=O)C1CCN(S(=O)(=O)c2ccc3c(c2)NC(=O)C(C)O3)CC1` (stereo not drawn) returned an RP-LC retention time of 897 s.
For `COc1ccc(CNC(=O)c2ccc3c(=O)n(Cc4ccccc4)c(N4CCCC4)nc3c2)cc1`, the RP-LC retention time was found to be 956 s.
Turning to `CN(Cc1ccccc1)C(=O)CCNc1c(-c2cccc(F)c2)nc2cnccn12`, the RP-LC retention time was found to be 814 s.
Molecule `CCCNC(=O)C1CCCN(c2nc3ncn(CC(=O)Nc4cc(C)cc(C)c4)c(=O)c3s2)C1` (stereo not drawn) displayed an RP-LC retention time of 759 s.
In turn, `Cc1cccc(-c2nnc(-c3nc(NCc4ccc(C)o4)c4ccccc4n3)o2)c1` displayed an RP-LC retention time of 670 s.
Molecule `CCc1ccc(-n2nc(C)c3c(C(F)(F)F)cc(OCC(=O)NCc4ccco4)nc32)cc1` registered an RP-LC retention time of 1300 s.
`Cc1ccc(F)cc1NC(=O)Cn1nc2c(Oc3cccc(F)c3)nccn2c1=O`: the RP-LC retention time is 829 s.
The molecule `O=C(Cn1nc(S(=O)(=O)c2cccc(F)c2)ccc1=O)N1CCN(c2ccccc2)CC1` came in with an RP-LC retention time of 802 s.
The same measure for `CCCNc1cc(N2CCCC(CCC(=O)Nc3ccc(OC)c(OC)c3)C2)ncn1` (stereo not drawn): 667 s; for `Cc1nc(C)c(C(=O)Nc2nc(-c3ccc(Br)cc3)cs2)s1`: 1030 s; for `CC1CCN(CCNC(=O)c2nnc(-c3ccc(S(=O)(=O)N4CCCCC4)cc3)o2)CC1`: 663 s.
`CCn1nccc1C(=O)N1C[C@@H]2C[C@H](NC(=O)c3ccccc3)[C@H]1C2`: the RP-LC retention time came out at 673 s.
In turn, `COC(=O)C1=C(C)NC(C)=C(C(=O)OC)C1c1cccc(NC(=O)NCCCN2CCC(c3cccc(OC)c3)CC2)c1` displayed an RP-LC retention time of 833 s.
In the case of `Cc1cc(N2CCCC2)nc(N2CCN(C(=O)CC3CCCC3)CC2)n1`, the RP-LC retention time came out at 694 s.
As for `Cc1nc2ccccc2c(=O)n1Cc1noc(-c2cccc(Br)c2)n1`, the RP-LC retention time stood at 948 s.
With `O=C(NCCCN1CCCC1)c1ccc2nc(Cc3ccccc3)oc2c1`, the RP-LC retention time stood at 642 s.
The same measure for `Cc1cc(Nc2ccc(NC(=O)c3sc(C)nc3C)cc2)nc(N2CCCC2)n1`: 583 s; for `Cc1nc(-c2ccc(-c3noc(CNC(=O)Cc4ccccc4)n3)cc2)cs1`: 903 s.
In the case of `CC(=O)c1ccc(NC(=O)Cn2cccc2-c2nc(-c3ccc4c(c3)OCO4)no2)cc1`, the RP-LC retention time was determined as 923 s.
For the molecule `CC(C)CNC(=O)NCCC1CCN(S(=O)(=O)c2ccc(F)cc2)CC1`, the RP-LC retention time came out at 824 s.
For `Cn1nc(C(=O)N2CCC(C(=O)NC3CCCCCC3)CC2)c2c1CCN(C(=O)c1ccccc1)C2`, the RP-LC retention time was determined as 742 s.
As for `CCOCC(=O)N1CCC(Oc2nccnc2N2CCOCC2)C1` (stereo not drawn), the RP-LC retention time amounted to 640 s.
For `CCn1ccc(C(=O)N2CCCn3cc(-c4cccc(C#N)c4)nc32)n1`, the RP-LC retention time was 639 s.
The same measure for `CCCn1cc(CNC(=O)C2CCCN(c3nnc4ccc(C(F)(F)F)cn34)C2)c(C)n1` (stereo not drawn): 709 s.
In the case of `Clc1ccccc1-c1nc2ccccc2[nH]1`, the RP-LC retention time was determined as 663 s.
For the molecule `CCSc1nnc(NC(=O)CSC2=NN3CCCC(=O)N=C3S2)s1`, the RP-LC retention time amounted to 683 s.
`Cc1nc(-c2cccs2)c(CCC(=O)NC2CCCC2)s1` showed an RP-LC retention time of 773 s.
The same measure for `COc1ccccc1-c1nc(-c2ccc(S(=O)(=O)N3CCC(C)CC3)cc2)no1`: 1290 s.
For `CCCc1ccc(-c2csc(NC(=O)c3ccc(C)o3)n2)cc1`, the RP-LC retention time was 1210 s.
Molecule `CC(CCc1ccccc1)NC(=O)Cc1csc2nc(-c3ccccc3)cn12` (stereo not drawn) returned an RP-LC retention time of 850 s.
As for `COc1ccc(-c2nc(NC(=O)CS(=O)(=O)c3ccc(C)cc3)sc2C)cc1`, the RP-LC retention time worked out at 1010 s.
`CC(NC(=O)C1=CCN(Cc2ccccc2)CC1)c1ccccc1` (stereo not drawn) had an RP-LC retention time of 639 s.
In turn, `CCC(=O)N1CCc2c(sc3ncnc(NCc4cccnc4)c23)C1` displayed an RP-LC retention time of 573 s.
`CC(C)OCCCNC(=O)CCc1c(-c2ccc(Br)cc2)nc2ccccn12` yielded an RP-LC retention time of 652 s.
The same measure for `Cn1cc2c3c(cccc31)CN(C(=O)c1c(F)cccc1F)CC2`: 920 s; for `Cc1noc(C)c1-c1ccc(S(=O)(=O)Nc2cccc(F)c2)cc1`: 916 s; for `COc1ccc(C2C(C(=O)N3CC(C)CC(C)C3)CCC(=O)N2c2ccc(OC)cc2)cc1` (stereo not drawn): 871 s.
`CC(C)c1nnc(-c2cccnc2N2CCN(C(=O)c3ccc4[nH]ccc4c3)CC2)o1` yielded an RP-LC retention time of 749 s.
The same measure for `COc1cccc(N2CCN(c3ccc(-c4nc(-c5ccccc5)no4)cn3)CC2)c1`: 1410 s; for `CC1CCN(S(=O)(=O)c2ccc(-c3nnc(C(=O)NCC(C)c4ccccc4)o3)cc2)CC1` (stereo not drawn): 1140 s.
The molecule `CCN1C(=O)COc2ccc(-c3nc(NC(=O)c4ccc(F)cc4)sc3C)cc21` showed an RP-LC retention time of 1050 s.
Molecule `CN(C)c1ccc(CNC(=O)Cc2cn(C)c3ncccc23)cc1` showed an RP-LC retention time of 704 s.
The same measure for `Cc1oc2ncnc(N3CCCCC3)c2c1C(=O)N1CCN(c2ccccn2)CC1`: 591 s; for `CC(C)CCNC(=O)CN1c2ccc(F)cc2-c2ccccc2S1(=O)=O`: 963 s.
In turn, `Cc1cccc(NC(=O)C2CCCN(c3nc4ccsc4c(=O)n3-c3cccc(C)c3)C2)c1` (stereo not drawn) gave an RP-LC retention time of 1020 s.
`CSc1ccc(CCNC(=O)CCC(=O)N2CCCn3nc(C)cc32)cc1` showed an RP-LC retention time of 703 s.
With `CCc1cccc(NC(=O)C2CCN(S(=O)(=O)c3cn(CC)cn3)CC2)c1`, the RP-LC retention time amounted to 794 s.
The molecule `Cc1onc(-c2ccccc2Cl)c1C(=O)Nn1cnc2c(cnn2C(C)(C)C)c1=O` showed an RP-LC retention time of 864 s.
On to `Cc1nc(N2CCN(c3ccccn3)CC2)nc2c1C(=O)CCC2`, for which the RP-LC retention time worked out at 583 s.
On to `CCCc1cc(N2CCN(C(=O)c3ccc(N(C)C)cc3)CC2)nc2nncn12`, for which the RP-LC retention time was 612 s.

Source of the values: the METLIN SMRT retention time set (Domingo-Almenara et al. 2019).
